The values that follow come from patent publication US20240174692A1, “PYRIMIDINE AROMATIC RING COMPOUNDS” (Medshine Discovery Inc., priority 2021, published 2024).

The structures appear in SMILES notation.

Series [1] deals with plasma protein. Nature of the series: Plasma protein binding (PPB), equilibrium dialysis, D plasma. The conditions noted are these: 2 μM, 4 hr dialysis. The format is in vitro ADME, dog. The protocol: (§1) Assay procedure: 995 μL of blank plasma of various genera were weighed, and 5 μL of assay compound working solution (400 μM) or warfarin working solution (400 μM) was added so that the final concentrations of the assay compound and warfarin in plasma sample were each 2 μM. The samples were mixed thoroughly. The final concentration of DMSO (the organic phase) was 0.5%. 50 μL of the plasma samples of the assay compound and warfarin were pipetted to a sample receiving plate (in triplicate), and the corresponding volume of corresponding blank plasma or buffer was added immediately, so that the final volume in each sample well was 100 μL, wherein the volume ratio of plasma:dialysis buffer was 1:1. 500 μL of stop solution was then added to these samples. These samples were used as T0 samples for determination of recovery and stability. […] All samples were subjected to protein precipitation, and then analyzed by LC/MS/MS. Bound rate and recovery rate of protein were calculated using the following formulae: % Unbound=100*F/T % Bound=100−% Unbound, % Recovery=100*(F+T)/T0 (wherein F is the peak area ratio of the compound in the dialysate after 4 h of dialysis; T is the peak area ratio of the compound in the plasma after 4 h of dialysis; T0 is the peak area ratio of the compound in the plasma sample at time zero).
For orientation: In equilibrium dialysis free small molecules cross a membrane that holds back macromolecules.

In series [2] the test system is plasma protein. Nature of the series: Plasma protein binding (PPB), equilibrium dialysis, M plasma. In kind it is in vitro ADME, mouse. As to conditions: 2 μM, 4 hr dialysis. The protocol:
as §1

Series [3] has as its system plasma protein. Nature of the series: Plasma protein binding (PPB), equilibrium dialysis, R plasma. The format is in vitro ADME, rat. As to conditions: 2 μM, 4 hr dialysis. As to the method:
as §1

Series [4] concerns plasma protein. Nature of the series: Plasma protein binding (PPB), equilibrium dialysis, H plasma. The conditions noted are these: 2 μM, 4 hr dialysis. The format is in vitro ADME, human. The protocol:
as §1

Series [5] relates to plasma protein. Nature of the series: Plasma protein binding (PPB), equilibrium dialysis, C plasma. As to conditions: 2 μM, 4 hr dialysis. The format is in vitro ADME, monkey. As to the method: as §1
A short description of series [6]: Pharmacokinetic evaluation of compounds in mice. As to conditions: mouse, plasma; CD-1 male mice, IV, 1.03 mg/kg. The format is in vivo, CD-1 mice. The protocol:
Purpose of assay: To assay the pharmacokinetic data of the compounds in CD-1 mice in vivo.
Compounds were mixed with vehicle 5% DMSO/95% (10% HP-β-CD aqueous solution), and the mixture was vortexed and sonicated to give 0.2 mg/mL-0.3 mg/mL clear solutions. CD-1 male mice aged 7 to 10 weeks were selected, and the candidate compound solution was administered intravenously. Whole blood was collected for a certain period of time to prepare the plasma. The drug concentration was analyzed by LC-MS/MS method and pharmacokinetic parameters were calculated by Phoenix WinNonlin software (Pharsight, USA).
Compounds were mixed with vehicle 5% DMSO/95% (10% HP-β-CD in water), and the mixture was vortexed and sonicated to give 1.6 mg/mL to 4.0 mg/mL clear solutions. CD-1 male mice aged 7 to 10 weeks were selected, and the candidate compound solution was orally administered. Whole blood was collected for a certain period of time to prepare plasma. The drug concentration was analyzed by LC-MS/MS method, and pharmacokinetic parameters were calculated by Phoenix WinNonlin software (Pharsight, USA).

Turning to `C#Cc1c(F)ccc2cc(O)cc(-c3ccc4c(N5CC6CCC(C5)N6)nc(OC[C@@]56CCCN5C[C@H](F)C6)nc4c3F)c12` [Compound 010], the “Unbound PPB D” value in series [1] is listed as 2.2%. For the same compound, in series [2], the “Unbound PPB M” value is listed as 2.0%. The “Unbound PPB R” value in series [3] is recorded as 1.3%. The “Unbound PPB H” value in series [4] is listed as 2.9%. Also, in series [5], the “Unbound PPB C” value amounted to 1.9%. In series [6], the AUC(0-inf) (in general, the area under the concentration-time curve extrapolated to infinity) stood at 0.457 µM·h; the C0 stood at 712 nM; the Vd (usually a proportionality between amount in the body and measured concentration, not a real space) was 25 L/kg; the clearance (in general, a measure of how efficiently the substance is removed, as volume per time) was determined as 61.4 mL/min/kg. Besides, the half-life (commonly how long it takes for the measured level to halve) in series [6] is 8.1 h.
